Assay results as given in patent US9134245B2, “Cell-based antioxidant protection assay” (Natural Immune Systems, Inc., priority 2007, dated 2015).
In brackets after ≈: the same amount, converted by molar mass.

Tested on: red blood cells (RBC)
Assay: CAP-e assay (RBC treated with test sample, washed, lysed; CM-H2DCFDA fluorescence after oxidative challenge)
Format: cell-based, human
Settings: for inhibition of oxidative damage: hydroxyl free radical generator H2O2 compared with peroxyl free radical generator AAPH: dose response curves, FIG. 2 and FIG. 3
Method: Whole blood was collected from healthy volunteers. A double density gradient was prepared, where 3 ml of HISTOPAQUE® 1099 was overlaid with 3 ml of HISTOPAQUE® 1077. 5-6 ml of whole anticoagulated blood was layered on top of the double gradient and centrifuged for 25 minutes at 2400 rpm. The plasma, peripheral blood mononuclear cells, polymorphonuclear cells, and HISTOPAQUE® were removed using a transfer pipette. The remaining packed red blood cell fraction was washed three times in 10-14 ml PBS by centrifugation at 2400 rpm for 10 minutes. After the third wash the supernatant was removed, and the packed RBC were aliquoted for storage by pipetting 200 μl packed RBC into 10 ml PBS. The RBC aliquots were stored at 4-8° C. until use. The cells were used the same day or after up to 120 days of storage. For most routine testing, the RBC were typically prepared 2-4 weeks before use.
The antioxidant standard gallic acid (GA) was prepared by dissolving 85 mg of GA in 0.5 ml of 99.95% methanol. 0.2 ml of the dissolved GA was immediately diluted in 49.8 ml of PBS. Serial five-fold dilutions of the GA solution were prepared in PBS.
The serial dilutions of the extract and the GA standard were aliquoted in duplicate in a deep-well microplate. 100 μl of the RBC suspension was added to each well. The plate was incubated for 20 minutes at room temperature in the dark. Unabsorbed antioxidants were removed by washing the RBC three times in PBS by centrifugation for 2.5 minutes at 2400 rpm. The RBC pellets were lysed by incubation in 0.08 ml distilled water for 5 minutes at room temperature.
The fluorescent probe was prepared by reconstituting 50 μg CM-H2DCFDA in 0.2 ml anhydrous dimethyl sulfoxide, which was then added to 7.5 ml PS. After lysis of RBC was complete 70 μl of the lysed RBC were transferred to a black microplate and 50 μl of CM-H2DCFDA was added to each well (16.25 μM CM-H2DCFDA). The microplate was incubated for 20 minutes at room temperature or 37° C. in the dark. Then 50 μl H2O2 (0.0004% final concentration) or 50 μl AAPH (1 mg/ml final concentration) was added to each well. Wells exposed to H2O2 were incubated for 5 minutes at room temperature in the dark. Wells exposed to AAPH were incubated for one hour at room temperature or 37° C. in the dark. Fluorescence intensity was measured in a Tecan Spectrafluor fluorescence plate reader with excitation at 485 nm and emission at 535 nm.
Negative controls were RBC which were not treated with a test sample or standard and were not exposed to an oxidative challenge. Positive controls were RBC which were not treated with a test sample or standard, but were exposed to an oxidative challenge. The percent inhibition of oxidative damage was calculated as [(fluorescence intensity of RBC treated with free radical generator−fluorescence intensity of RBC treated with test sample and free radical generator)/(fluorescence intensity of RBC treated with free radical generator−fluorescence intensity of untreated RBC)]×100.
The CAP-e value of a given test product is based on the comparison of the dose-response of inhibition of oxidative damage between the standard gallic acid (GA) and the test sample. For each test sample or compound, the IC50 for inhibition of oxidative damage is calculated. […] The CAP-e units of GA was set as 1,000 Gallic Acid Equivalents (GAE). […] The CAP-e value was expressed as CAP-e units/g of sample.

## O=C(O)c1cc(O)c(O)c(O)c1 [GA, gallic acid]
Homo sapiens, Erythrocyte, determined from more than 60 independent experiments, read-out: IC50 for inhibition of oxidative damage
  IC50: 32 µg/mL (≈ 188 µM)
RBC from a person over 85 years versus under 50 years of age, H2O2, FIG. 11
  amount needed for the same level of protection, RBC from older person versus younger person: More GA was required
  inhibition of oxidative damage: hydroxyl free radical generator H2O2 compared with peroxyl free radical generator AAPH: equally effective

## Cc1c(C)c2c(c(C)c1O)CCC(C)(C(=O)O)O2 (centres unmarked) [TROLOX®, 6-hydroxy-2,5,7,8-tetramethylchroman-2-carboxylic acid]
H2O2 and AAPH, at higher concentrations
  protection of RBC from damage from both free radical generators: protected RBC from damage
  inhibition of oxidative damage: hydroxyl free radical generator H2O2 compared with peroxyl free radical generator AAPH: more effective against hydroxyl free radicals at lower concentrations
